Assay results published in article PMC10756276, “Highly specific σ2R/TMEM97 ligand FEM-1689 alleviates neuropathic pain and inhibits the integrated stress response” (Proceedings of the National Academy of Sciences of the …, 2023).
Entries after “also recorded” stand apart in the source; their conditions may differ. Read-outs that look alike come from different tables or passages of the source.

Legend:
H3 = biological target: T1, H3 (Homo sapiens, UniProt Q9Y5N1); experiment: PDSP competitive binding assay; conditions: 10 µM test article; read-out: Ki: primary assay inhibition of radioligand binding, H3
T1 construct: purchased NIMH Psychoactive Drug Screening Program (PDSP), University of North Carolina at Chapel Hill

BiP in mouse DRG neurons = experiment: BiP immunocytochemistry in cultured DRG neurons; assay type: cell-based; conditions: ISRIB 200 nM
Experimental: (§1) The ICC protocol was based on a previously published protocol ([76]). […] Cells were blocked with 10% normal goat serum (NGS) in PBS-triton X (0.1%). […] Antibodies were incubated at 4 °C overnight. […] It was washed with PBS twice. […] Images were analyzed using Olympus CellSens. […] Number of cells analyzed are detailed in SI Appendix, Tables S3 and S4. […]
(§2) T his BSA gradient containing the cells was centrifuged at 900g for 5 min at room temperatur e.
(§3) The pellet containing the cells was resuspended in Br ainPhys media (STEMCell #05790) containing 2% […]
(§4) 1% Gluta Max (Gibco # 350 5 0061). Hu man DRG ne uron s were plated a nd grown o n glass coverslips coate d with po ly-D-lysine (Sigma #P7405). C ultured D RG neurons were plated for 24 hours before being treated.
(§5) Methylglyoxal (Sigma- Aldrich #M0252) and F EM- 1689 were serially diluted in media.
(§6) Mouse samples - DRG cultures […]
(§7) anesthesia and decapitated. […]
(§8) section above with minor differences.
(§9) Mouse DRG neurons were grown in
(§10) SAS-0132 and DKR-1677 were […]
(§11) dissolved in 100% DMSO to a final concentr ation of 200mM and stored at - 20 °C. and DKR-1677 were serially diluted in media. Untreated media was completely replaced with media containing each compound. […]
(§12) Slides were […]
incubated with 1:2 diluted hydrogen peroxide in distilled water for 10 min at r oom temper ature and washed twice in distilled water. The protease IV was applied to each section and incubated for 5 min at room temperature. Slides were w ashed twice in 1X PBS and RNA scope was performed immediately. A mixture of probes - Tmem97, Scn10a, and Fabp7 – was hybridized for 2 hours at 40 °C in a humidity control tray

5HT6 = 5HT6 (Homo sapiens, UniProt P50406); experiment: PDSP competitive binding assay; conditions: single determination
5HT5a = biological target: T2, 5HT5a (Homo sapiens, UniProt P47898); experiment: PDSP competitive binding assay; conditions: 10 µM test article; read-out: Ki: primary assay inhibition of radioligand binding, 5HT5a
T2 construct: purchased NIMH Psychoactive Drug Screening Program (PDSP), University of North Carolina at Chapel Hill

Alpha2a = biological target: T3, Alpha2a (Homo sapiens, UniProt P08913); experiment: PDSP competitive binding assay; conditions: 10 µM test article; read-out: Ki: primary assay inhibition of radioligand binding, Alpha2a
T3 construct: purchased NIMH Psychoactive Drug Screening Program (PDSP), University of North Carolina at Chapel Hill

MOR = MOR (Homo sapiens, UniProt P35372); experiment: PDSP competitive binding assay; conditions: 10 µM test article; read-out: Ki: primary assay inhibition of radioligand binding, MOR
σ1R = σ1R (Homo sapiens, UniProt Q99720); experiment: Competition binding with [3H]-(+)-pentazocine (NIMH PDSP)
[1] = test system: SNI model of neuropathic pain, wild-type and TMEM97KO mice; experiment: SNI model of neuropathic pain, von Frey mechanical hypersensitivity; assay type: in vivo, mouse; conditions: for mechanical hypersensitivity after SNI (von Frey): male and female
5HT1B = biological target: T4, 5HT1B (Homo sapiens, UniProt P28222); experiment: PDSP competitive binding assay; conditions: 10 µM test article; read-out: Ki: primary assay inhibition of radioligand binding, 5HT1B
T4 construct: purchased NIMH Psychoactive Drug Screening Program (PDSP), University of North Carolina at Chapel Hill

Beta 3 = biological target: T5, Beta 3 (Homo sapiens, UniProt P13945); experiment: PDSP competitive binding assay; conditions: 10 µM test article; read-out: Ki: primary assay inhibition of radioligand binding, Beta 3
T5 construct: purchased NIMH Psychoactive Drug Screening Program (PDSP), University of North Carolina at Chapel Hill

5HT2C = 5HT2C (Homo sapiens, UniProt P28335); experiment: PDSP competitive binding assay; conditions: 10 µM test article; read-out: Ki: primary assay inhibition of radioligand binding, 5HT2C
[2] = test system: p-eIF2α in human DRG neurons; experiment: p-eIF2α immunocytochemistry in cultured human DRG neurons; assay type: cell-based
D5 = D5 (Homo sapiens, UniProt P21918); experiment: PDSP competitive binding assay; conditions: 10 µM test article; read-out: Ki: primary assay inhibition of radioligand binding, D5
[3] = test system: p-ACC in mouse DRG neurons; experiment: p-ACC immunocytochemistry in cultured DRG neurons; assay type: cell-based; conditions: 16 h; FEM-1689 10, 100, 1,000 nM; A769662 100 µM; wild-type and TMEM97KO neurons
Experimental: as §1, §2, §3, §4, §5, §6, §7, §8, §9, §10, §11, §12
incubated with 1:2 diluted hydrogen peroxide in distilled water for 10 min at r oom temper ature and washed twice in distilled water. […]

NET = NET (Homo sapiens, UniProt P23975); experiment: PDSP competitive binding assay
KOR = KOR (Homo sapiens, UniProt P41145); experiment: PDSP competitive binding assay
SERT = biological target: T6, SERT (Homo sapiens, UniProt P31645); experiment: PDSP competitive binding assay; conditions: 10 µM test article; read-out: Ki: primary assay inhibition of radioligand binding, SERT
T6 construct: purchased NIMH Psychoactive Drug Screening Program (PDSP), University of North Carolina at Chapel Hill

M5 = biological target: T7, M5 (Homo sapiens, UniProt P08912); experiment: PDSP competitive binding assay; conditions: 10 µM test article; read-out: Ki: primary assay inhibition of radioligand binding, M5
T7 construct: purchased NIMH Psychoactive Drug Screening Program (PDSP), University of North Carolina at Chapel Hill

σ2R/TMEM97 = σ2R/TMEM97 (Homo sapiens, UniProt Q5BJF2); experiment: Competition binding with [3H]-ditolylguanidine in presence of (+)-pentazocine (NIMH PDSP)

## OCCCN1CC[C@@H]2C[C@H]1c1cc(-c3ccc(C(F)(F)F)cc3)ccc12 [FEM-1689]
H3
  inhibition at 10 µM: < 50%
BiP in mouse DRG neurons; TMEM97KO mouse DRG neurons
  BiP levels: una ffecte d; also recorded: did not reduce levels of BiP
BiP in mouse DRG neurons; wild-type mouse DRG neurons
  BiP levels: reduced at a high concentration of 1000 nM
5HT6
  Ki: > 10000 nM
5HT5a
  inhibition at 10 µM: < 50%
Alpha2a
  inhibition at 10 µM: < 50%
MOR
  inhibition at 10 µM: < 50%
σ1R
  Ki: 206 nM
σ1R; ratio of Ki
  selectivity for σ2R/TMEM97 vs σ1R: 10 fold
σ1R; read-out: σ1R Ki, averages ± SD
  Ki: 167 ± 54 nM
[1]; single 10 mg/kg IV, 30 d after SNI, wild-type and TMEM97KO, 7 d, 10 mg/kg
  mechanical hypersensitivity after SNI (von Frey): little or no change for mechanical sensitivity in either group; also recorded: not sufficient to reduce mechanical hypersensitivity
[1]; single 20 mg/kg IV, TMEM97KO mice, 20 mg/kg
  mechanical hypersensitivity after SNI (von Frey): failed to reduce mechanical hypersensitivity
[1]; single 20 mg/kg IV, wild-type mice
  duration of reversal of mechanical hypersensitivity: roughly 4 d
[1]; single 20 mg/kg IV, wild-type mice, 20 mg/kg
  mechanical hypersensitivity after SNI (von Frey): effectively reversed mechanical hypersensitivity; also recorded: maximal antinociceptive effect
5HT1B
  inhibition at 10 µM: < 50%
Beta 3
  inhibition at 10 µM: < 50%
5HT2C
  inhibition at 10 µM: < 50%
[2]; 10 and 100 nM, 16 h
  p-eIF2α levels: significantly reduced p-eIF2α levels
[2]; cotreatment MGO 1 µM and FEM-1689 100 nM
  MGO-induced increase in p-eIF2α: prevented this increase; also recorded: prevented an increase in p-eIF2α
D5
  inhibition at 10 µM: < 50%
[3]
  p-ACC levels: remained unchanged; also recorded: no change in p-ACC levels
NET; Ki, NET, Run 1
  Ki: 668 nM
NET; Ki, NET, Run 2
  Ki: 221 nM
NET; Ki, NET, Run 3
  Ki: 209 nM
NET; Ki, NET, Run 4
  Ki: 519 nM
NET; ratio of Ki
  selectivity for σ2R/TMEM97 vs NET: 24 fold
NET; read-out: NET Ki, average of four Ki determinations
  Ki: 405 ± 227 nM
KOR; Run 1, read-out: Ki, KOR
  Ki: 4700 nM
KOR; Run 2, read-out: Ki, KOR
  Ki: 9490 nM
KOR; read-out: KOR Ki
  Ki: 7090 ± 2400 nM
SERT
  inhibition at 10 µM: < 50%
M5
  inhibition at 10 µM: < 50%
σ2R/TMEM97
  Ki: 11.2 nM
σ2R/TMEM97; read-out: σ2R/TMEM97 Ki, averages ± SD
  Ki: 17 ± 8 nM
